According to PMC9225722, “Synthesis and biological evaluation of thieno[3,2-c]pyrazol-3-amine derivatives as potent glycogen synthase kinase 3β inhibitors for Alzheimer’s disease” (Journal of Enzyme Inhibition and Medicinal Chemistry, 2022):
“Also recorded” adds a separate entry of the source.

Key:
[1] = test system: panel of 21 diverse kinases; test: Kinase selectivity screen, whole panel; type: biochemical, human; conditions: 1.0 μM compound, Km ATP, 21 kinases
Description: (§1) The potent GSK-3β inhibitor 16b was next subjected to kinase selectivity assay. A panel of kinases which were structurally related to GSK-3β was used for the GSK-3β selectivity studies[26]^,[37]^,[38]. […] GSK-3α and GSK-3β are known to share a 98% sequence homology at the catalytic site[42]. CDK5 and GSK-3 belong to the CMGC protein kinase family, which shared highly homology with each other[43]^,[44]. CDK5 is known abnormally activated and also responsible for the tau hyperphosphorylation in AD[45]. It was known that Aβ could increase CK2 activity, which in turn accelerated the tau phosphorylation in AD[46]. Therefore, the inhibition of CDK5 and CK2 by 16b may be beneficial for its anti-AD activities.
Figure 3. Effects of compound 16b on the activities of 21 protein kinases in vitro. Protein kinases were of human origin and assayed in the presence of 1.0 μM compound 16b or vehicle (DMSO). The enzymatic activity was measured in the presence of Km ATP. Kinase activities were given as the mean of twice determinations. […]
(§2) Compound 16b was evaluated for kinase selectivity at Eurofins Cerep SA (Celle-L’Evescault, France) in enzymatic radioactive assays in a panel of 21 different kinases (including GSK-3β) from diverse families. […] The enzymatic activity was measured in the presence of Km ATP.

[2] = molecular target: GSK-3β (Homo sapiens, UniProt P49841); test: GSK-3β kinase assay (calliper mobility shift assay); type: biochemical; conditions: mean ± SD from two separate experiments; calliper mobility shift assay
GSK-3β, sequence (P49841 whole entry): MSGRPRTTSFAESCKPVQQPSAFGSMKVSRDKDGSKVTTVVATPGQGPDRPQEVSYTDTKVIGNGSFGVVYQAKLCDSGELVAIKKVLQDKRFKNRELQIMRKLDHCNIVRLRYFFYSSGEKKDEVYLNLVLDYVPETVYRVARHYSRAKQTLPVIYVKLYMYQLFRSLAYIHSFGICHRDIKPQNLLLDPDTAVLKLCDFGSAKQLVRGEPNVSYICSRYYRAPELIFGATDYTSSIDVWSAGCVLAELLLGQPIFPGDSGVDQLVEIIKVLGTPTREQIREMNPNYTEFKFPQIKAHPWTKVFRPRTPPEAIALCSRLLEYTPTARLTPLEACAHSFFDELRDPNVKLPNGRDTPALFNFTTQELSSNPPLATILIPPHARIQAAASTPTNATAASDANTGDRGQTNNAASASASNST

[3] = molecular target: T1, GSK-3α (Homo sapiens, UniProt P49840); test: Kinase selectivity screen (enzymatic radioactive assay, Eurofins Cerep); type: biochemical; conditions: 1.0 μM compound, Km ATP
T1 construct: purchased Eurofins Cerep SA (contract assay service)
T1 sequence (P49840 whole entry): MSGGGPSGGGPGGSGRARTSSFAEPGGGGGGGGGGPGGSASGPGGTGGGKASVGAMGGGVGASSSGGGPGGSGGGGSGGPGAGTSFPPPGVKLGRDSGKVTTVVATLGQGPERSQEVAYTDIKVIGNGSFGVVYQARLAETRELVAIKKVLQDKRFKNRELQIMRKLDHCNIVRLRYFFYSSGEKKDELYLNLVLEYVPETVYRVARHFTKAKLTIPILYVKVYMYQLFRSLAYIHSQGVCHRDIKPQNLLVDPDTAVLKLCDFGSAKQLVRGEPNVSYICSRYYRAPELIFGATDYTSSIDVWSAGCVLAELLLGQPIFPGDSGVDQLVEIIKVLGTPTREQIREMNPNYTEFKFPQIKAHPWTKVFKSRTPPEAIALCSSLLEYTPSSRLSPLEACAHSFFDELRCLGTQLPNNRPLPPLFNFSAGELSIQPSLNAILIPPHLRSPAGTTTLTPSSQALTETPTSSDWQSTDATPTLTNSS
Description: as §1
(§3) Figure 3. Effects of compound 16b on the activities of 21 protein kinases in vitro. Protein kinases were of human origin and assayed in the presence of 1.0 μM compound 16b or vehicle (DMSO). The enzymatic activity was measured in the presence of Km ATP. Kinase activities were given as the mean of twice determinations. AMPKα1, AMP-activated protein kinase 1; AMPKα2, AMP-activated protein kinase 2; CDK4/cyclinD3, cyclin-dependent protein kinase-4/cyclinD3; CDK5/p35, cyclin-dependent protein kinase-5/p35; CHK1, checkpoint kinase-1; CK2, casein kinase-2; Lck, lymphocyte kinase; MSK1, mitogen- and stress-activated protein kinase-1; p70S6K, p70 ribosomal protein S6 kinase; PDK1, 3-phosphoinositide-dependent protein kinase-1; PKA, cAMP-dependent protein kinase; PKBα, protein kinase Bα; PKCα, protein kinase Cα; PRAK, p38-regulated/activated kinase; SAPK2a, stress-activated protein kinase-2a; SAPK2b, stress-activated protein kinase-2b; SAPK3, stress-activated protein kinase-3; SAPK4, stress-activated protein kinase-4; SGK, serum- and glucocorticoid-induced protein kinase.
as §2

[4] = molecular target: T2, CK2 (Homo sapiens, UniProt P68400); test: as above; type: biochemical; conditions: 1.0 μM compound, Km ATP
T2 construct: purchased Eurofins Cerep SA (contract assay service)
T2 sequence (P68400 whole entry): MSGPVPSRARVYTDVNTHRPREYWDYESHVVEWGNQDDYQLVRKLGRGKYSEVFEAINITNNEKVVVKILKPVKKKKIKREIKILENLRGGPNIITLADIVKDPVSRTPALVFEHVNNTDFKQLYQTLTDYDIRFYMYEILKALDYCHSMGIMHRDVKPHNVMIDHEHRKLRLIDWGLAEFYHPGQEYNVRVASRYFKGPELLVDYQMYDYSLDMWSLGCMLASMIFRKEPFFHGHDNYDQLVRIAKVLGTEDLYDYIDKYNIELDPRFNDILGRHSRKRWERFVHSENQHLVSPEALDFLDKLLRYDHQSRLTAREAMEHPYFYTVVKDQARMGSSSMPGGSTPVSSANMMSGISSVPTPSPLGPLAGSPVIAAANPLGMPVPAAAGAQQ
Description: as §1, §3, §2

[5] = molecular target: T3, CDK5/p35 (Homo sapiens, UniProt Q00535); test: as above; type: biochemical; conditions: 1.0 μM compound, Km ATP
T3 construct: purchased Eurofins Cerep SA (contract assay service)
T3 sequence (Q00535 whole entry): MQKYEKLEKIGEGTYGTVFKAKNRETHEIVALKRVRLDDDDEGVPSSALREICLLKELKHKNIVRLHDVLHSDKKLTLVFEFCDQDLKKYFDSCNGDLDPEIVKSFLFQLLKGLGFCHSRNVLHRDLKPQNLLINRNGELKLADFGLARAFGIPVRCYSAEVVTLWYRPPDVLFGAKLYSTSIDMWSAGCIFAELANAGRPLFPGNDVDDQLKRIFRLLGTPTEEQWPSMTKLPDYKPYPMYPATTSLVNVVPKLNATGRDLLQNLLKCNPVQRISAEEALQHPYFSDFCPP
T3 sequence (Q15078 whole entry partner): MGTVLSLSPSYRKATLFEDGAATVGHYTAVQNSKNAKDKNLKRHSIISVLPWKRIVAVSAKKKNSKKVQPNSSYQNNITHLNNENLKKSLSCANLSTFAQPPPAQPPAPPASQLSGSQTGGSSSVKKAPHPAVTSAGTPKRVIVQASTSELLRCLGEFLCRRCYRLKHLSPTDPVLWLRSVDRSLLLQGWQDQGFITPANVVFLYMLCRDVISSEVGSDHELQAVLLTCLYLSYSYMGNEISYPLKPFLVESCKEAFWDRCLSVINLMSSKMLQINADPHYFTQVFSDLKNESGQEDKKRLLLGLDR
Description: as §1, §3, §2

[6] = test system: tau phosphorylation at Ser396; test: Inhibition of Aβ-induced tau hyperphosphorylation (Western blot) in SH-SY5Y cells; type: cell-based, human; conditions: 20 μM Aβ25-35 stimulated (Aβ25-35 alone 0.83)
Description: GSK-3β phosphorylates tau at sites (Ser199, Ser396, and Ser443), and the hyperphosphorylated tau aggregate into NFTs in AD[63]. Inhibition of GSK-3β could reduce tau hyperphosphorylation. Therefore, the cell-based assay examining Aβ-induced tau phosphorylation at Ser396 represents a direct functional assay to measure the cellular activity of GSK-3β inhibitors. To investigate the effect of 16b on tau phosphorylation, Western blot analysis was carried out to check Aβ-induced tau protein hyperphosphorylation at Ser396 in SH-SY5Y cells, using LiCl as the control. […] At the concentration of 5 μM, 10 μM and 20 μM, 16b decreased the phosphorylation tau level to 0.70, 0.52, 0.40, respectively.
Figure 7. Inhibition of Aβ-induced tau phosphorylation by 16b in SH-SY5Y cells. Values are reported as the mean ± SD of three independent experiments. *p < 0.05, **p < 0.01, ***p < 0.001 vs control.
SH-SY5Y cells were seeded in 12-well plates until 80% confluence, serum-deprived for 12 h. Cells were pre-incubated with compound 16b or LiCl for 1 h, thereafter stimulated with Aβ25–35 (Sigma) for another 6 h. According to the previously reported method[64]^,[75], the phosphorylated tau was determined.

[7] = test system: SH-SY5Y cells; test: Neuronal neurite outgrowth assay; type: cell-based, human; conditions: 10 μM, 72 h, compared with RA (10 μM)
Description: Differentiated SH-SY5Y cells express neurogenesis-related markers, including growth-associated protein 43 (GAP43), the N-myc gene as well as neuronal polarity marker microtubule-associated protein 2 (MAP-2). GAP43 is an intrinsic determinant of neuronal development and plasticity which regulates axon growth and regeneration[68]^,[69]. N-myc is indispensable to normal neurogenesis in the expansion of progenitor cell populations. MAP-2 regulates neuronal development, structural stability and synaptic plasticity through the formation of axonal and dendritic processes[71]^,[72]. Inhibition of GSK-3β could induce neurogenesis and promote the expressions of the neurogenesis-related markers. Firstly, we used SH-SY5Y cells to study the effect of 16b on neurite outgrowth, using retinoic acid (RA) as a positive control. After incubating with 16b (10 μM) or RA (10 μM) for 72 h, the morphology of differentiated neuronal neurite outgrowth were obtained.
Figure 8. (A) Effect of 16b (10 μM) on neurite outgrowth (72 h). Red arrows indicated cells bearing neurites. […]
SH-SY5Y cells (5 × 10^3) were planted in 96-well plates and cultivated at 37 °C for 24 h. […] After the SH-SY5Y cells were cultivated for 24 h, total RNA was extracted, and quantitative RT-PCR was performed according to the previously reported method.

IC50 [2]: 3.1 ± 0.1 nM | selectivity over GSK-3α [3]: low selectivity | selectivity over CK2 [4]: moderate selectivity | selectivity over CDK5 [5]: low selectivity
SMILES: CC(C)C(=O)Nc1n[nH]c2cc(-c3cccnc3)sc12 [Compound 16b, N-(5-(pyridin-3-yl)-1H-thieno[3,2-c]pyrazol-3-yl)isobutyramide]
kinase selectivity over most of the kinases of the panel [1]: good selectivity; also recorded: accepted kinase selectivity | p-tau/GAPDH ratio (Ser396) ([6]; 5 μM): 0.70 | p-tau/GAPDH ratio (Ser396) ([6]; 10 μM): 0.52 | p-tau/GAPDH ratio (Ser396) ([6]; 20 μM): 0.40 | neurite outgrowth of SH-SY5Y cells [7]: substantial ability in inducing SH-SY5Y cells neurite outgrowth
